Assay results taken from patent US6943022B2, “Inhibition of apoptosis by the expression of antisense RNA of caspase-3” (Korea Advanced Institute of Science and Technology, priority 2001, dated 2005).

Columns and labels:
recombinant CHO cells [1] = type: cell-based
Experimental: The present inventors confirmed whether the expression of antisense RNA of caspase-3 could inhibit the NaBu-induced apoptosis. Particularly, control cells and B3 cells obtained in Example <1-1> were seeded at a concentration of 4×10^4 cells/ml in 6-well culture plates containing 5 ml of an alpha-minimum essential medium supplemented with 5% dialyzed fetal bovine serum and 0.32 μM of methotrexate. After three days of cultivation, the spent medium was replaced with fresh medium containing 0-5 mM of sodium butyrate. Cells were harvested periodically. Viable cells were distinguished from dead cells using the trypan blue dye exclusion method to determine cell viability. In addition, secreted humanized antibody concentration was measured by enzyme-linked immunosorbent assay (ELISA).

recombinant CHO cells [2] = experiment: LDH activity in culture supernatant (degree of cell lysis) after sodium butyrate; type: cell-based; settings: control cells, first two days after addition of 5 mM sodium butyrate
Description: The integrity of protein product is influenced by the degree of cell lysis because some proteolytic enzymes and glycosidases released from the cellular membrane ruptured-dead cells influence the molecular integrity of the product (Goldman, et al., 1997, Cytotechnology, 23, 103-111; Hansen, et al., 1997, Cytotechnology, 24, 227-234; Teige, et al., 1994, J. Biotechnol., 34, 101-105). The amount of lysed cells can be determined by measuring the amount of lactate dehydrogenase (LDH) released into the culture supernatant (Cruz, et al., 2000, Biotechnol. Lett., 22, 677-682). Thus, to determine the degree of cell lysis, the LDH activity in culture supernatant was measured daily after treatment with 5 mM of sodium butyrate.

CCCC(=O)[O-].[Na+] [sodium butyrate]
cytotoxic effect on the cell growth (recombinant CHO cells [1]; 0-5 mM sodium butyrate, control and B3 CHO cells): dose-dependent
cellular apoptosis (recombinant CHO cells [1]; 5 mM sodium butyrate): induced
viability of control cells (recombinant CHO cells [1]; three days after treatment with 5 mM sodium butyrate, control cells (null pcDNA3.1-zeo(+))): under 50%
LDH activity in culture supernatant (recombinant CHO cells [2]): increased rapidly
